Reference: US11478453B2, “Treatment for glioblastoma” (HADASIT MEDICAL RESEARCH SERVICES AND DEVELOPMENT LTD., priority 2016, dated 2022)

Columns and labels:
A172 cells = assay: Crystal violet cell viability, A172 glioma cells; assay type: cell-based
Protocol: (§1) A172 and U87MG cells were cultured in DMEM-Eagle medium supplemented with 4 mmol/L L-glutamine, 100 units/ml penicillin and 100 μg/ml streptomycin, and 10% FBS Charcoal Stripped (Biological Industries, Israel). The T98G cells were cultured in Eagle's minimum essential medium supplemented with 4 mmol/L L-glutamine, 100 units/ml penicillin and 100 μg/ml streptomycin. To avoid the influence of FBS derived steroid hormone on AR, the cell media were supplemented with 10% charcoal/dextran-treated (stripped) FBS (Biological Industries). The cells were maintained in a humidified incubator at 37° C. in 5% CO2.

T98G cells = assay: Crystal violet cell viability, T98G glioma cells (single agents and combinations)
Protocol: as §1
The effect of combination therapies that involve anti-AR signaling agents together with agents that target EGFR on AR modulation was examined in glial tumor cells expressing a ligand independent AR splice variant.

U87MG cells = assay: Crystal violet cell viability, U87MG glioma cells; assay type: cell-based, human
Protocol: as §1

[1] = Homo sapiens, 72 h, read-out: Cell viability, percentage of cells treated with DHT
[2] = Homo sapiens, 72 h, read-out: Cell viability, percentage of cells treated with vehicle

With `CC(O)(CS(=O)(=O)c1ccc(F)cc1)C(=O)Nc1ccc(C#N)c(C(F)(F)F)c1` (stereo not shown) [bicalutamide] the viability at 20 µM (A172 cells; Homo sapiens, A 172, A172, 20 uM, 72 hrs, with 10 μM DHT, read-out: Cell viability, percentage of cells treated with DHT) was 90%, the viability at 80 µM (A172 cells; Homo sapiens, A 172, A172, 80 uM, 72 hrs, with 10 μM DHT, read-out: Cell viability, percentage of cells treated with DHT) was 43% and the viability at 20 µM (T98G cells; [1]) was 90%. It also gave a viability at 80 µM (T98G cells; [1]) of 59%, a viability at 20 µM (U87MG cells; Homo sapiens, U-87 MG, 20 uM, 72 hrs, with 10 μM DHT, read-out: Cell viability, percentage of cells treated with DHT) of 83% and a viability at 80 µM (U87MG cells; Homo sapiens, U-87 MG, 80 uM, 72 hrs, with 10 μM DHT, read-out: Cell viability, percentage of cells treated with DHT) of 31%.
In the case of `C[C@]12CCC(=O)C[C@@H]1CC[C@@H]1[C@@H]2CC[C@]2(C)[C@@H](O)CC[C@@H]12` [DHT, 5α-dihydrotestosterone], the “Effect of DHT on cell viability versus vehicle” value (A172 cells; A172, 10 μM DHT, vehicle 0.15% ETOH) is reported as “no effect on cell viability”, the “Effect of DHT on cell viability versus vehicle” value (T98G cells; 10 μM DHT, vehicle 0.15% ETOH) is reported as “no effect on cell viability” and the “Effect of DHT on cell viability versus vehicle” value (U87MG cells; 10 μM DHT, vehicle 0.15% ETOH) is reported as “no effect on cell viability”.
In the case of `CN(C)C/C=C/C(=O)Nc1cc2c(Nc3ccc(F)c(Cl)c3)ncnc2cc1O[C@H]1CCOC1` [afatinib], the viability at 1.25 µM (T98G cells; [2]) is reported as 92% and the viability at 5 µM (T98G cells; [2]) is reported as 47%.
In the case of `C#Cc1cccc(Nc2ncnc3cc(OCCOC)c(OCCOC)cc23)c1` [erlotinib], the viability at 1.25 µM (T98G cells; [2]) is reported as 94% and the viability at 10 µM (T98G cells; [2]) is reported as 63%.
